# Experimental data from US8940785B2, “Association between 4-{3-[cis-hexahydrocyclopenta[c]pyrrol-2(1H)-yl]propoxy}benzamide and an acetylcholinesterase inhibitor, and pharmaceutical compositions containing it” (priority 2011, dated 2015).
# Counter-ions that a name gives are not always drawn. Like-named read-outs stand apart in the source and are kept apart here.
# Legend:
# [1] = test system: middle-aged (14-15 months old) C57B16 mouse; experiment: contextual serial discrimination test (model of episodic memory); assay type: in vivo; conditions: chronic treatment for 9 days; for power of contextual memory (correct responses−interfering responses): carrier −28%
# From the text: The effects of 4-{3-[cis-hexahydrocyclopenta[c]pyrrol-2(1H)-yl]propoxy}benzamide and donepezil (both in the form of a hydrochloride), administered on their own or in combination, were studied using a contextual serial discrimination test in the middle-aged (14-15 months old) C57B16 mouse (n=12 per group) (Célérier et al., Learn Mem., 2004, 11(2), 196-204; Tronche et al., Behav. Brain Res., 2010, 215(2): 255-60). […] This model is relevant for evaluating the effects of products in Alzheimer's disease because patients suffering from that form of dementia also have disturbances of contextual episodic memory, this being the case from a very early stage (Gold and Budson, Expert Rev Neurother., 2008, 8(12): 1879-1891).
# The mice, placed in a box with raised edges, learn two types of consecutive spatial discrimination (D1: white floor, then D2: black floor) on a floor with four holes, in which just one of the holes is baited, the arrangement being opposite in D1 and in D2 (see FIG. 1). Each discrimination is performed on a specific floor (black or white), which constitutes the internal context specific to each discrimination. 24 hours after the learning step, the mice are returned to the white contextual floor, and the following are measured: • the percentage of correct responses (i.e. % of lowering the head into the hole that was baited during the learning exercise on the white floor), • the percentage of interfering responses (i.e. % of lowering the head into the hole that was baited during the learning exercise on the black floor, the last context presented to the mice), • and the percentage of errors (i.e. % of lowering the head into the two holes that were not baited during learning, whether on the white floor or on the black floor (see FIG. 1).
# The effects of 4-{3-[cis-hexahydrocyclopenta[c]pyrrol-2(1H)-yl]propoxy}benzamide and rivastigmine (used in the form of a hydrogen tartrate), administered on their own or in combination, were studied using the contextual serial discrimination test in the middle-aged C57B16 mouse described in the Example above.
# The effects of 4-{3-[cis-hexahydrocyclopenta[c]pyrrol-2(1H)-yl]propoxy}benzamide and galantamine (used in the form of a hydrobromide), administered on their own or in combination, were also studied using the contextual serial discrimination test in the middle-aged C57B16 mouse.
# C57B16 mouse = conditions: administered on its own
# Protocol: The effects, in terms of safety, of 4-{3-[cis-hexahydrocyclopenta[c]pyrrol-2(1H)-yl]propoxy}-benzamide and donepezil (both in the form of a hydrochloride), administered on their own or in association, were studied using Irwin's primary observation test in the C57B16 mouse (n=4 individuals per group).
# Behavioural changes, physiological and neurotoxic symptoms, rectal temperature and pupil diameter were recorded using a standardised observation grid derived from that of Irwin.
smiles,measurement,setting,value
"CCN(C)C(=O)Oc1cccc([C@H](C)N(C)C)c1 [rivastigmine, reference compound]",power of contextual memory (correct responses−interfering responses),"[1]; Example B, FIG. 4, rivastigmine 0.1 mg/kg of base per os",−9%
NC(=O)c1ccc(OCCCN2C[C@H]3CCC[C@H]3C2)cc1 [4-{3-[cis-hexahydrocyclopenta[c]pyrrol-2(1H)-yl]propoxy}benzamide],observable changes in Irwin's test,C57B16 mouse; 0.3 and 1 mg/kg of base per os,no observable changes
same,increase in the level of correct responses compared to the carrier,"[1]; Example A, FIG. 2, 0.3 mg/kg of base per os",more than 60%
same,increase in the level of correct responses compared to the carrier,"[1]; Example A, FIG. 2, 1 mg/kg of base per os",more than 60%
same,power of contextual memory (correct responses−interfering responses),"[1]; Example B, FIG. 4, 0.3 mg/kg of base per os",+6%
same,power of contextual memory (correct responses−interfering responses),"[1]; Example B, FIG. 4, 1 mg/kg of base per os",+10%
same,power of contextual memory (correct responses−interfering responses),"[1]; Example C, FIG. 5, 0.3 mg/kg of base per os",−3%
same,power of contextual memory (correct responses−interfering responses),"[1]; Example C, FIG. 5, 1 mg/kg of base per os",+9%
"COc1cc2c(cc1OC)C(=O)C(CC1CCN(Cc3ccccc3)CC1)C2 (stereo not drawn) [donepezil hydrochloride, donepezil]",observable changes in Irwin's test,C57B16 mouse; donepezil 1 mg/kg of base per os (strongest dose),reduces reactivity to touch and causes slight sedation
same,observable changes in Irwin's test,C57B16 mouse; donepezil 0.1 and 0.3 mg/kg of base per os,no observable changes
same,percentage of correct responses compared to the carrier,"[1]; Example A, FIG. 2, donepezil hydrochloride 0.1 mg/kg of base per os, tested 24 hours after learning",no significant improvement
"COc1ccc2c3c1O[C@H]1C[C@@H](O)C=C[C@@]31CCN(C)C2 [galantamine, reference compound]",power of contextual memory (correct responses−interfering responses),"[1]; Example C, FIG. 5, galantamine 0.3 mg/kg of base per os",−18%
